Marks after values point to notes of the source that are not given here. Peptide text beside a SMILES is read from it. * marks the point of attachment. X65 = O=C1C=CC(=O)N1c1cccc(CCCCCCCCCCCCC(=O)*)c1; X59 = O=C1C=CC(=O)N1c1cccc(CCCCCCCCC(=O)*)c1; X63 = O=C1C=CC(=O)N1c1ccccc1CCCCCCC(=O)*; X49 = O=C1C=CC(=O)N1c1ccccc1CCCCCC(=O)*; X79 = O=C1C=CC(=O)N1c1cccc(CCC(=O)*)c1
Experiments:
[1] = tested on: HUVECs; assay: Transwell migration inhibition on HUVECs; assay type: cell-based, human; settings: for Inhibition rate (%): HUVEC migration vs blank control; for Cell migration number (Mean ± SD): HUVECs, transwell, 24 h
[2] = tested on: IL-1β production by mouse peritoneal macrophages; assay: IL-1β production by mouse peritoneal macrophages (ELISA); assay type: cell-based; settings: for Inhibition rate: IL-1β production, vs model group; for IL-1β: mouse peritoneal macrophages, 48 h, ELISA
Method in brief: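 Starch-elicited (6%, i.p.) mouse peritoneal macrophages, 2×10^6 cells/mL in RPMI 1640, adhered 3 h; non-adherent cells washed off. Polypeptides added at low, medium and high concentrations, Dex as positive control; cultured 48 h, supernatant IL-1β measured.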

[3] = tested on: xylene-induced ear swelling; assay: Xylene-induced mouse ear swelling; assay type: in vivo; settings: Kunming mice, injected once a day for 5 days; for Swelling degree / Swelling degree (mg): right minus left ear piece weight 2 h after xylene; for Inhibition rate (%): xylene-induced ear swelling
Method in brief: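 Kunming mice dosed by injection once daily for 5 days; 1 h after last dose, 0.05 mL xylene applied to right ear, left ear untreated. Mice killed 2 h later; punched ear pieces weighed. Swelling degree = right minus left ear weight; swelling rate = swelling degree/left ear weight ×100%.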

[4] = tested on: corneal neovascularization; assay: Corneal neovascularization induced by alkali burn in BALB/c mice; assay type: in vivo; parameters: Inhibition rate (corneal neovascularization): concentration or dose not given beside the values; settings: day 14 after alkali burn, vitreous injection once a day for 1 week
[5] = tested on: retinal vascular endothelial nuclei; assay: Neovascularization in a rat model of premature retinopathy; assay type: in vivo, rats; settings: for Nuclei count (retinal vascular endothelial nuclei, average per section per eyeball): dose 0.05 μM in the vitreous chamber from day 7 of modeling for one week, counted on day 14, oxygen-induced neonatal rats
Procedure: Using a fluctuating oxygen-induced animal model, newborn rats born naturally on the same day (within 12 h) were randomly divide into three groups: an oxygen model group, an oxygen treatment group and a normal control group. The oxygen model was further divided into three sub-group model groups, and the sub-group model groups and the treatment group were all placed in a semi-closed oxygen chamber made of organic glass; medical oxygen was introduced into the chamber, and the concentration was adjusted to 80%±2% by an oxygen meter; nitrogen was introduced into the oxygen chamber after 24 h, and the oxygen concentration was adjusted to 10%±2% rapidly and maintained for 24 h. This was repeated to keep the oxygen concentration in the oxygen chamber alternating between 80% and 10% every 24 h, the oxygen concentration was maintained for 7 d, and then the rats were fed in the air. The oxygen concentration was monitored 8 times a day, and the ambient temperature in the chamber was controlled at 23° C.±2° C. Bedding was replaced, feed was added, and water and mother rats were replaced once. The normal control group was placed in the animal room feeding environment. […] The oxygen treatment group was divided into three subgroups. On day 7 of modeling, X1-[…], […]-[…] and […]-X90 were injected in the vitreous chamber respectively, and the oxygen model group and the control group were only given normal saline for one week. On day 14, after the rats were anesthetized by diethyl ether and killed, eyeballs were extracted and fixed in 40 g/L paraformaldehyde solution for 24 h. Gradient dehydration by alcohol was performed, and the eyeballs were processed by xylene to be transparent. After waxing, the eyeballs were sectioned continuously to a thickness of 4μm, and the periphery of the optic disc should be avoided as much as possible. The sections were parallel to the sagittal plane from cornea to the optic disc. Ten sections of each eyeball were randomly taken and stained with hematoxylin eosin, the number of vascular endothelial nuclei that broke through the inner limiting membrane of the retina (only the number of vascular endothelial nuclei closely related to the inner limiting membrane were counted) was counted, and statistics of the average number of cells per section per eyeball was performed. Results: In the control group, there were no vascular endothelial nuclei that broke through the inner limiting membrane of the retina and grew into vitreous body, or the vascular endothelial nuclei were occasionally found in only a few sections. In the model group, there were many vascular endothelial nuclei that broke through the inner limiting membrane of the retina, some appeared alone, and some appeared in clusters. At the same time, on some sections, these vascular endothelial nuclei were also found adjacent to deep retinal vessels, confirming that they originated from the retina rather than the vitreous body or other ocular tissues. In the treatment group, only a few vascular endothelial nuclei that broke through the inner limiting membrane of retina could be seen in the sections.

| SMILES | Inhibition rate (%) ([1]; dose 0.05 μM) | Inhibition rate (%) ([1]; dose 0.1 μM) | Inhibition rate (%) ([1]; dose 0.2 μM) | Cell migration number (Mean ± SD) ([1]; dose 0.05 μM) | Cell migration number (Mean ± SD) ([1]; dose 0.1 μM) | Cell migration number (Mean ± SD) ([1]; dose 0.2 μM) | Inhibition rate ([2]; dose 0.05 μM) [%] | IL-1β ([2]; dose 0.05 μM) [pg/mL] | Inhibition rate ([2]; dose 0.1 μM) [%] | IL-1β ([2]; dose 0.1 μM) [pg/mL] | Inhibition rate ([2]; dose 0.2 μM) [%] | IL-1β ([2]; dose 0.2 μM) [pg/mL] | Swelling degree ([3]; dose 2 mg/kg) [mg] | Inhibition rate (%) ([3]; dose 2 mg/kg) | Inhibition rate (%) ([3]; dose 4 mg/kg) | Swelling degree (mg) ([3]; dose 8 mg/kg) | Inhibition rate (%) ([3]; dose 8 mg/kg) | Inhibition rate (corneal neovascularization) [4] [%] | MVD (corneal microvessel density) [4] | Nuclei count (retinal vascular endothelial nuclei, average per section per eyeball) [5] | further results |
| --- | --- | --- | --- | --- | --- | --- | --- | --- | --- | --- | --- | --- | --- | --- | --- | --- | --- | --- | --- | --- | --- |
| C[C@H](NC(=O)CNC(=O)[C@H](CCCNC(=N)N)NC(=O)CCCCCCCCc1cccc(N2C(=O)C=CC2=O)c1)C(=O)N[C@@H](CC(=O)O)C(=O)N[C@@H](CCCNC(=N)N)C(=O)N[C@@H](C)C(=O)NCC(=O)NCC(=O)NCC(=O)NCC(=O)N[C@@H](CCCNC(=N)N)C(=O)NCC(=O)N[C@@H](CC(=O)O)C(=O)O [X32] (X59-RGADRAGGGGRGD-OH) | 41.92 | 47.67 | 56.61 | 622.57 ± 49.41 | 560.86 ± 50.91 | 465.06 ± 48.23 | 18.02 | 771.56 ± 13.41 | 28.17 | 676.06 ± 19.82 | 43.31 | 533.56 ± 18.54 | 5.17 ± 0.06 | 17.01 | 22.47 | 3.69 ± 0.56** mg | 40.77 | 50.25 | 33.45 ± 6.453 | 8.394 ± 2.665 | Swelling degree (mg) ([3]; dose 4 mg/kg): 4.83 ± 0.02* mg |
| C[C@H](NC(=O)CNC(=O)[C@H](CCCNC(=N)N)NC(=O)CCCCCc1ccccc1N1C(=O)C=CC1=O)C(=O)N[C@@H](CC(=O)O)C(=O)N[C@@H](CCCNC(=N)N)C(=O)N[C@@H](C)C(=O)NCC(=O)NCC(=O)NCC(=O)NCC(=O)N[C@@H](CCCNC(=N)N)C(=O)NCC(=O)N[C@@H](CC(=O)O)C(=O)O [X17] (X49-RGADRAGGGGRGD-OH) | 48.96 | 54.89 | 57.52 | 547.07 ± 50.72 | 483.55 ± 66.46 | 455.35 ± 68.52 | 16.02 | 790.35 ± 11.07 | 43.57 | 531.11 ± 17.61 | 43.90 | 528.00 ± 10.53 |  | 25.36 | 28.89 | 3.53 ± 0.1** mg | 43.34 | 48.05 | 34.93 ± 4.725 | 7.012 ± 1.321 | Swelling degree (mg) ([3]; dose 2 mg/kg): 4.65 ± 0.79* mg; Swelling degree (mg) ([3]; dose 4 mg/kg): 4.43 ± 0.75* mg; retinal vascular endothelial nuclei count ([5]; dose 0.05 μm, vitreous injection): 7.012±1.321 |
| C[C@H](NC(=O)CNC(=O)[C@H](CCCNC(=N)N)NC(=O)CCCCCCc1ccccc1N1C(=O)C=CC1=O)C(=O)N[C@@H](CC(=O)O)C(=O)N[C@@H](CCCNC(=N)N)C(=O)N[C@@H](C)C(=O)NCC(=O)NCC(=O)NCC(=O)NCC(=O)N[C@@H](CCCNC(=N)N)C(=O)NCC(=O)N[C@@H](CC(=O)O)C(=O)O [X18] (X63-RGADRAGGGGRGD-OH) | 40.73 | 41.02 | 44.55 | 635.26 ± 59.22 | 632.13 ± 55.39 | 594.30 ± 45.38 | 23.36 | 721.31 ± 12.75 | 23.86 | 716.58 ± 16.56 | 27.40 | 683.26 ± 19.63 | 5.42 ± 0.18 | 13.00 | 15.25 | 4.18 ± 0.9** mg | 32.91 | 50.18 | 33.50 ± 5.649 | 8.002 ± 3.606 | Swelling degree ([3]; dose 4 mg/kg): 5.28 ± 0.46 mg |
| C[C@H](NC(=O)CNC(=O)[C@H](CCCNC(=N)N)NC(=O)CCc1cccc(N2C(=O)C=CC2=O)c1)C(=O)N[C@@H](CC(=O)O)C(=O)N[C@@H](CCCNC(=N)N)C(=O)N[C@@H](C)C(=O)NCC(=O)NCC(=O)NCC(=O)NCC(=O)N[C@@H](CCCNC(=N)N)C(=O)NCC(=O)N[C@@H](CC(=O)O)C(=O)O [X26] (X79-RGADRAGGGGRGD-OH) | 46.81 | 48.98 | 53.86 | 570.08 ± 49.26 | 546.86 ± 60.43 | 494.57 ± 48.88 | 18.26 | 769.33 ± 19.82 | 21.99 | 734.20 ± 13.89 | 29.51 | 663.38 ± 11.96 | 5.88 ± 0.72 | 5.62 | 7.22 | 4.54 ± 0.61** mg | 49.76 | 44.32 | 37.44 ± 4.646 | 8.343 ± 2.131 | Swelling degree ([3]; dose 4 mg/kg): 5.78 ± 0.62 mg |
| C[C@H](NC(=O)CNC(=O)[C@H](CCCNC(=N)N)NC(=O)CCCCCCCCCCCCc1cccc(N2C(=O)C=CC2=O)c1)C(=O)N[C@@H](CC(=O)O)C(=O)N[C@@H](CCCNC(=N)N)C(=O)N[C@@H](C)C(=O)NCC(=O)NCC(=O)NCC(=O)NCC(=O)N[C@@H](CCCNC(=N)N)C(=O)NCC(=O)N[C@@H](CC(=O)O)C(=O)O [X36] (X65-RGADRAGGGGRGD-OH) | 52.07 | 56.76 | 57.92 | 513.79 ± 55.46 | 463.47 ± 50.27 | 451.01 ± 43.85 | 17.18 | 779.49 ± 11.56 | 34.09 | 620.34 ± 15.26 | 34.16 | 619.62 ± 11.89 | 5.37 ± 0.84 | 13.80 | 13.80 | 4.7 ± 0.97* mg | 24.56 | 45.52 | 36.63 ± 5.284 | 8.726 ± 3.273 | Swelling degree ([3]; dose 4 mg/kg): 5.37 ± 0.21 mg |

— patent publication US20200270309A1, “MALEIMIDE GROUP-MODIFIED ANGIOGENESIS INHIBITOR HM-1 AND USE THEREOF” (NANJING ANJI BIOLOGICAL TECHNOLOGY CO., LTD, priority 2017, published 2020)
